From ChEMBL document CHEMBL1201862, “PubChem BioAssay data set” (2004)
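Protocol summary: plate cells (96-well), add compound at 5 concentrations, incubate 48 h, interpolate endpoints linearly. GI50 = concentration required for 50% inhibition of growth.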 Calls of active or inactive are those of the source. No stated cut-off is given here; in the data, active = GI50 up to about 1.1 µM and inactive = higher.

Key:
Experiment in all cases: NCI anticancer screen, dose series, 48 h
[1] = test system: CAKI-1
[2] = test system: NCI-H226
[3] = test system: SW-620
[4] = test system: SNB-75
[5] = test system: TK-10
[6] = test system: A549
[7] = test system: SK-OV-3
[8] = test system: A498
[9] = test system: BT-549
[10] = test system: OVCAR-4
[11] = test system: NCI-H522
[12] = test system: MDA-MB-435
[13] = test system: KM12
[14] = test system: SK-MEL-5
[15] = test system: HCT-116
[16] = test system: LOX IMVI
[17] = test system: NCI/ADR-RES
[18] = test system: IGROV-1
[19] = test system: NCI-H460

Measured: GI50

Nc1cc2c3c(cccc3c1)C(=O)N(c1ccc(OCCN3CCCCC3)cc1)C2=O
inactive: [1] 17.8 µM | [2] 18.6 µM | [3] 20.6 µM | [4] 14.6 µM | [5] 16.5 µM | [6] 13.9 µM | [7] 15.1 µM | [8] 16 µM | [9] 19.7 µM | [10] 17.1 µM | [11] 18.5 µM | [12] 24.7 µM | [13] 20 µM | [14] 15.3 µM | [15] 11.3 µM | [16] 14 µM | [17] 19.2 µM | [18] 17.6 µM

CC(C#N)NCc1ccc(C(C)NC(C)C#N)cc1 (centres undefined)
inactive: [1] > 100 µM | [2] > 100 µM | [3] > 100 µM | [5] > 100 µM | [6] > 100 µM | [7] > 100 µM | [8] > 100 µM | [9] > 100 µM | [19] > 100 µM | [10] > 100 µM | [11] > 100 µM | [12] > 100 µM | [13] > 100 µM | [14] > 100 µM | [15] > 100 µM | [16] > 100 µM | [17] > 100 µM | [18] > 100 µM

S=C(NN=C1NCCCCN1)Nc1ccccc1
inactive: [1] > 100 µM | [2] > 100 µM | [4] 80.9 µM | [6] 34.8 µM | [7] 79.8 µM | [8] > 100 µM | [9] 64.9 µM | [19] 37.2 µM | [11] 21.2 µM | [12] 39.7 µM | [13] 37.2 µM | [14] 48.8 µM | [15] 24.5 µM | [16] 26.6 µM | [17] > 100 µM | [18] 43.4 µM

COc1ccc(C2=C(N)c3cc(OC)ccc3C2=O)cc1
inactive: [1] > 100 µM | [2] > 100 µM | [3] > 100 µM | [4] 16.1 µM | [6] > 100 µM | [7] > 100 µM | [8] > 100 µM | [9] > 100 µM | [19] > 100 µM | [10] > 100 µM | [11] > 100 µM | [12] > 100 µM | [13] 29.2 µM | [14] > 100 µM | [15] > 100 µM | [16] > 100 µM | [17] 88.7 µM | [18] > 100 µM

CN(CCCNC(=O)c1c2ccc3ccccc3c2nn1C)CCCNC(=O)c1c2ccc3ccccc3c2nn1C
inactive: [1] 1.6 µM | [2] 15.1 µM | [3] 7.74 µM | [4] 8.2 µM | [5] 2.67 µM | [6] 12.4 µM | [7] 15 µM | [8] 6.9 µM | [9] 10.6 µM | [19] 4.52 µM | [10] 11.7 µM | [11] 7.35 µM | [12] 2.29 µM | [13] 8.13 µM | [14] 2.23 µM | [15] 4.76 µM | [16] 3.15 µM | [17] 13.6 µM | [18] 8.79 µM

COc1ccc(-n2c(C)nc3ccc(/N=C/c4ccccc4)cc3c2=O)cc1
inactive: [1] > 100 µM | [2] > 100 µM | [3] > 100 µM | [4] > 100 µM | [5] > 100 µM | [8] > 100 µM | [9] > 100 µM | [19] > 100 µM | [10] > 100 µM | [11] > 100 µM | [12] > 100 µM | [13] > 100 µM | [14] > 100 µM | [15] > 100 µM | [16] > 100 µM | [17] > 100 µM | [18] > 100 µM

CN(C)c1nc(Cl)c2c(-c3ccccc3)c(-c3ccccc3)oc2n1
inactive: [1] 23.2 µM | [2] > 100 µM | [3] 93.5 µM | [4] 35.8 µM | [5] > 100 µM | [6] 98.2 µM | [7] 58.3 µM | [8] > 100 µM | [9] 29.7 µM | [10] 75.7 µM | [11] 17.5 µM | [12] > 100 µM | [13] > 100 µM | [14] 41.7 µM | [15] 31.2 µM | [16] 33.3 µM | [17] 82.4 µM | [18] 80.7 µM

COc1ccc(NC(=S)Nc2c(C)n(C)n(-c3ccccc3)c2=O)cc1
inactive: [1] > 100 µM | [2] > 100 µM | [3] > 100 µM | [4] > 100 µM | [5] > 100 µM | [6] > 100 µM | [7] > 100 µM | [8] > 100 µM | [9] > 100 µM | [19] > 100 µM | [11] > 100 µM | [12] > 100 µM | [13] > 100 µM | [14] > 100 µM | [15] > 100 µM | [16] > 100 µM | [17] > 100 µM | [18] > 100 µM

COc1cc2c(cc1OC)C1c3ccccc3CCCN1CC2 (centres undefined)
inactive: [1] > 100 µM | [2] > 100 µM | [3] > 100 µM | [4] > 100 µM | [5] > 100 µM | [6] > 100 µM | [7] > 100 µM | [8] > 100 µM | [9] > 100 µM | [19] > 10 µM | [10] > 100 µM | [11] > 100 µM | [12] > 100 µM | [13] > 100 µM | [14] > 100 µM | [15] 36.4 µM | [16] > 100 µM | [17] > 100 µM | [18] > 100 µM

S=c1c2cc(I)ccc2nc(S)n1Cc1ccccc1
inactive: [1] 3.78 µM | [2] 5.46 µM | [3] 3.72 µM | [4] 2.69 µM | [5] 4.55 µM | [6] 3.68 µM | [7] 4.1 µM | [8] 3.33 µM | [9] 4.42 µM | [19] 3.28 µM | [10] 3.62 µM | [11] 4.38 µM | [12] 4.1 µM | [13] 3.42 µM | [14] 3.17 µM | [15] 3.38 µM | [16] 3.4 µM | [17] 3.37 µM | [18] 4.05 µM

c1ccc2c(c1)CCN1CCc3c([nH]c4ccccc34)C21 (centres undefined)
inactive: [1] 30.3 µM | [2] 41.7 µM | [3] 36.2 µM | [4] 24.9 µM | [5] 42 µM | [6] 37.1 µM | [7] 47 µM | [8] 22.9 µM | [9] 27.3 µM | [19] 38.7 µM | [10] 35.2 µM | [11] 34 µM | [12] 26.7 µM | [13] 26.5 µM | [14] 15.1 µM | [15] 24.2 µM | [16] 22.8 µM | [17] 22.1 µM | [18] 29.4 µM
